Source: patent publication US10800790B2, “Sesquiterpenoid STAT3 inhibitors” (University of Hawaii, priority 2013, dated 2020)

Key:
[1] = tested on: U251MG glioblastoma cells; test: CyQuant cell viability/proliferation assay, U251MG; assay type: cell-based, human; conditions: Table 1/FIG. 2 numbering
Experimental: (§1) The cell viability assay was performed as previously reported (Zhang X, et al. (2010)). Briefly, a 10 millimolar concentration stock solution in dimethylsulfoxide (DMSO) of the tested molecule was first prepared. Next, the stock solution was diluted down to various working solutions in water. Thus, a formulation of the tested compound in a DMSO/water mixture was used to test for cell viability. (A novel small-molecule disrupts STAT3 SH2 domainphosphotyrosine interactions and STAT3-dependent tumor processes, Biochem Pharmacol 79:1398-1409; Zhao W, Jaganathan S, & Turkson J (2010), A cell-permeable STAT3 SH2 domain mimetic inhibits STAT3 activation and induces antitumor cell effects in vitro. J Biol Chem. 285:35855-35865). Cells (U251MG, MDA-MB-231 or NIH3T3) were obtained from ATCC (Manassas, Va.) and were cultured in 96-well plates at 2,000 cells per well for 24 h and were treated with compounds (5 micromolar concentration) for 72 h. Cell viabilty was determined using CyQuant assay, according to the manufacturer's (Invitrogen, CA, USA) instructions. Relative viability of the treated cells was normalized to the DMSO-treated control cells.

[2] = tested on: MDA-MB-231 breast cancer cells; test: CyQuant cell viability/proliferation assay, MDA-MB-231; assay type: cell-based, human; set-up: key to Activity against 231: +, active; −, no activity; +/−, poorly active; conditions: Table 1 grade; Table 1/FIG. 2 compound numbering
Experimental: as §1

[3] = tested on: normal NIH3T3 mouse fibroblasts; test: CyQuant cell viability/proliferation assay, NIH3T3; assay type: cell-based; set-up: key to Activity against 3T3: +, active; −, no activity; +/−, poorly active; conditions: Table 1 grade; Table 1/FIG. 2 compound numbering
Experimental: as §1

PTP1B = test: Immunoblotting of PTP1B levels in U251MG cells; assay type: cell-based, human; conditions: 5 micromolar
Experimental: To further investigate into the mechanism of inhibition of STAT3 induction, effects on protein tyrosine […] (PTPs) were determined. […] Instead, the potent inhibitory effects of agents (5 micromolar) countered the robust pY705STAT3 induction by orthovanadate alone.
FIGS. 13A-13C show analyses of STAT1, STAT3, STAT5, Akt, Erk1/2, JAK2, SOCS, and PTP1B activation or STAT3-EGFR association and the effects of active hirsutinolides and sodium orthovanadate. (A-C) SDS-PAGE and Western blotting analysis of whole-cell lysates of equal total protein prepared from (A) EGF-stimulated NIH3T3/hEGFR cells pre-treated with the 5 micromolar of the designated agents for 24 h and probing for pY705STAT3, STAT3, pY701 STAT1, STAT1, pY694STAT5, STAT5 or GAPDH, or the human glioma, U251MG cells treated with 5 micromolar of the designated inhibitors for (B) 0-32 h and probing for pS-Akt, Akt, pErk1/2, Erk1/2, pJAK2, JAK2, SOCS3, PTP1B, pSTAT3, STAT3, β-actin or GAPDH; or (C) 3 h in the absence or presence of increasing concentration of Na3VO4 and probing for pSTAT3, STAT3 or GAPDH/.

U251MG cells = test: Colony survival assay, U251MG; assay type: cell-based, human
Experimental: The effect of the isolated or synthesized compounds in a colony survival assay was performed.
This assay was performed as previously reported (Xu, Y., supra). The assay was performed as previously reported. Briefly, cells were seeded as single-cell in 6-well plates (250 cells per well), treated once the next day with compounds for 72 h, and allowed to grow until large colonies were visible. Colonies were stained with crystal violet for 4 h and counted with FluorChem imaging system (Protein Simple, Santa Clara, Calif.).

pSTAT1 = test: Immunoblotting of EGF-induced pSTAT1 in NIH3T3/hEGFR; conditions: 5 micromolar
Experimental: To determine the specificity of agents, mouse fibroblasts over-expressing the human EGF receptor (NIH3T3/hEGFR) were treated with the compounds and stimulated with EGF.

[4] = tested on: STAT3 DNA-binding activity; test: STAT3 DNA-binding activity (EMSA) of nuclear extracts from treated tumor cells; conditions: 5 micromolar, time course
Experimental: Positions of STATs:DNA complexes or proteins in gel are labeled; control lanes (0) represent nuclear extracts or whole-cell lysates prepared from 0.05% DMSO-treated cells.
Nuclear extract preparations and DNA-binding/electrophoretic mobility shift assay (EMSA) were carried out as previously described (Xu, supra). Nuclear extract preparations and DNA-binding activity/electrophoretic mobility shift assay (EMSA) were carried out as previously described. U251 MG and MDA-MB-231 cells culture were pretreated with different concentrations of the compounds for the indicated period and then harvested for nuclear extract preparation and DNA-binding assay with EMSA analysis. […] Except where indicated, nuclear extracts were pre-incubated with compound for 30 min at room temperature prior to incubation with the radiolabeled probe for 30 min at 30° C. before subjecting to EMSA analysis.

- IC50 ([1]; 72-h treatment, read-out: IC50 for the inhibition of U251MG cell viability): 2600 nM
Substance: (4S,6R,E)-4,7-dihydroxy-6,10-dimethyl-2-oxo-2,4,5,6,7,8,9,10-octahydro-7,10-epoxycyclodeca[b]furan-3-yl)methyl(E)-2-methylbut-2-enoate [Compound 22]
- Cell-type selectivity of growth inhibition, in words ([1]; U251MG versus other cells incl. NIH3T3): selective against the growth of human glioma U251MG cells
- Activity against 231 [2]: +
- Activity against 3T3 [3]: +/−
- Effect on PTP1B levels (PTP1B): little or no effects
- Preferential effect on colony survival of U251MG and MDA-MB231 over MCF-7 (U251MG cells): 2.5 fold
- Effect on EGF-induced pSTAT1 (pSTAT1): no effects
- Inhibition of STAT3 DNA-binding activity in treated cells (EMSA) [4]: early inhibition at 15-30 min
